As a reminder, the IC50 is the concentration needed to halve the response being measured. For orientation: solubility means the concentration that dissolves in the medium under given conditions. High values mean much dissolved substance, low ones little dissolved substance.

Where two headings read alike, the source gives them in different places.

These results are taken from patent US5585382A, “Polycyclic and heterocyclic chromophores for bis-imide tumoricidals” (The DuPont Merck Pharmaceutical Company, priority 1995, dated 1996).

For data set [1], the system named is Murine leukemia L1210 cells. As to the kind of experiment: In vitro growth inhibition of L1210 cells (MTT, 72 hr). It is filed as cell-based. As to conditions: Mus musculus, read-out: L1210 IC50. In outline: (§1)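 Cells seeded on day 0 (1×10^3 L1210 or 8×10^2 Clone A per well), graded compound concentrations added on day 1, then 72 hr at 37 °C. MTT 4 h, formazan dissolved in acidic isopropanol, read at 570/630 nm; IC50 from curve fit as half-maximal inhibition of population doublings, eight replicates.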

Data set [2] has as its system Clone A human colon cancer cells. As to the kind of experiment: In vitro growth inhibition of Clone A cells (MTT, 72 hr). In kind it is cell-based. As to conditions: read-out: Clone A IC50. In outline:
as §1

In a further data set the test system is DLD-2 human colon tumor. Nature of the data set: In vivo human tumor xenograft DLD-2 in nude mice. The conditions noted are these: for Tumor Growth Inhibition activity against DLD-2 (in words): NCI criteria. From the text: (§2) The DLD-2 human colon tumor and MX-1 human mammary carcinoma, were originally obtained from a surgically-removed primary colon carcinoma or breast tumor respectively. The human tumor lines were maintained by serial passage in athymic nude mice. The MX-1 human mammary carcinoma is an established tumor used by the NCI. The DLD-2 human colon tumor has been well characterized. (Dexter, D. L.; Spremulli, E. N.; Matook, G. M.; Diamond, I.; Calabresi, P. Cancer Research 1982, 42, 5010; Dexter, D. L.; Barbosa, J. A.; Calabresi, P. Cancer Research 1979, 39, 1020.)
(§3) The mice used in these experiments were outbred Swiss mice or CD-1 mice bearing the nude (nu/nu) gene. On Day 0, male and female mice weighing 22-30 g are inoculated with 0.2 mL of a 25% tumor mince. This mince is prepared by mincing fresh tumor tissue, grown subcutaneously in passage mice, in sterile physiological saline. Palpable tumors weighing approximately 50 mg appear in the mice within 7-10 days after inoculation. The mice are pair matched by tumor weight and sex into groups of ten each and the test compounds and vehicle control are administered intravenously (i.v.) once daily for nine consecutive days. A >20% decrease in body weight on Day 5 following compound administration is considered an indication of toxicity. Tumor measurements and body weights are recorded once a week. Fifteen to eighteen days after the initial injection the mice are weighed, sacrificed, and the tumors excised and weighed.
(§4) The efficacy of the test compounds is determined by the extent of tumor growth inhibition in treated versus vehicle-treated control mice. Initial tumor weights (mg) are calculated from the tumor dimensions (mm) obtained from caliper measurements, using the formula for a prolate ellipsoid (mg of tumor weight=(length×width^2)/2). Net tumor weights are calculated for each of the treated groups and the vehicle-treated control group by subtracting the initial tumor weight from the final tumor weight (Day 15-18). Results are expressed as a percentage decrease relative to the mean tumor weight for the control vehicle-treated group.
(§5) Tumor Growth Inhibition= [formula]
(§6) The evaluation criteria of the National Cancer Institute for activity in in vivo cancer models were used. Tumor growth inhibition of 58-89% against the various xenografts is considered moderate activity, and inhibition of ≥90% is considered good to excellent activity. Actual tumor regressions (IR=incomplete regression; FR=full regression) indicate excellent to outstanding activity.
(In general: A xenograft is tissue or cells of one species grown in another, often human tumour cells in immunodeficient mice.)

Data set [3] concerns MX-1 human mammary carcinoma. As to the kind of experiment: In vivo human tumor xenograft MX-1 in nude mice. The conditions noted are these: for Tumor Growth Inhibition activity against MX-1 (in words): NCI criteria.
Source text: as §2, §3, §4, §5, §6

The next data set is described as follows: physchem. As to conditions: water.
The mark [4] stands for this setting: Mus musculus, DLD2, iv, 216 h, read-out: DLD-2 percent tumor growth inhibition.
The mark [5] stands for this setting: i.v. once daily for nine days, nude mice.
Where [6] appears, read: Mus musculus, iv, 216 h, read-out: MX-1 percent tumor growth inhibition.
Setting [7] is: Mus musculus, iv, 216 h, read-out: MX-1 tumor regressions, IR=incomplete regression.

In the case of `CS(=O)(=O)O.O=C1c2cccc3cc([N+](=O)[O-])cc(c23)C(=O)N1CCCCNCCCN1C(=O)c2cc([N+](=O)[O-])cc3c2c(cc2cccnc23)C1=O` [Example 111, 4-[3-(3-Nitro-5-azaphenanthrene-1,10-dicarboximido)propylamino]-1-(3-nitronaphthalene-1,8-dicarboximido)butane Hydromethanesulfonate], the IC50 in data set [1] (L1210, 72 h) is 3 ng/mL; in data set [2] (72 h) it was 2 ng/mL. In addition, the “DLD-2 tumor regressions, IR=incomplete regression” value (“DLD-2 tumor regressions” for short) in the data set on DLD-2 human colon tumor (18 mg/kg, i.v. once daily for nine days, nude mice) is recorded as 2/7. The inhibition in vivo at 18 mg/kg in the data set with DLD-2 human colon tumor (setting [4]) was determined as 99%. Besides, in the data set on DLD-2 human colon tumor (setting [5]), the “Tumor Growth Inhibition activity against DLD-2 (in words)” value was “moderate to excellent”. Moreover, the “MX-1 tumor regressions, FR=full regression” value (“MX-1 tumor regressions” below) in data set [3] (20 mg/kg, i.v. once daily for nine days, nude mice) is listed as 1/9. The inhibition in vivo at 20 mg/kg in data set [3] (setting [6]) amounted to 99%. Further, the responders at 20 mg/kg in data set [3] (setting [7]) was 77.8%. In addition, the “Tumor Growth Inhibition activity against MX-1 (in words)” value in data set [3] (setting [5]) is listed as “moderate to excellent”. This molecule showed a solubility in “Solubility in water” of 240 µg/mL.
In the case of `CS(=O)(=O)O.CS(=O)(=O)O.Nc1cc2c3c(cc4cccnc4c3c1)C(=O)N(CCCNCCCCN1C(=O)c3cccc4cc([N+](=O)[O-])cc(c34)C1=O)C2=O` [Example 112, 4-[3-(3-Amino-5-azaphenanthrene-1,10-dicarboximido)propylamino]-1-(3-nitronaphthalene-1,8-dicarboximido)butane Dihydromethanesulfonate], the IC50 came out at 20 ng/mL in data set [1] (L1210 cells, 72 hr, MTT) and 7 ng/mL in data set [2] (Clone A cells, 72 hr, MTT). In the data set with DLD-2 human colon tumor (Mus musculus, DLD2, iv, 216 h, 12.5 mg/kg, i.v. once daily for nine days, nude mice, read-out: DLD-2 percent tumor growth inhibition), the inhibition in vivo at 12.5 mg/kg is 48%. Also, the inhibition in vivo at 25 mg/kg in data set [3] (Mus musculus, iv, 216 h, 25 mg/kg, i.v. once daily for nine days, nude mice, read-out: MX-1 percent tumor growth inhibition) worked out at 98%. Further, in data set [3] (Mus musculus, iv, 216 h, 25 mg/kg, i.v. once daily for nine days, nude mice, read-out: MX-1 tumor regressions, IR=incomplete regression (converted)), the responders at 25 mg/kg is 37.5%. The “Tumor Growth Inhibition activity against MX-1 (in words)” value in data set [3] (setting [5]) is reported as “moderate to excellent”. The molecule also gave a solubility in the data set “Solubility in water” of 7500 µg/mL.
In the case of `CS(=O)(=O)O.CS(=O)(=O)O.C[C@H](CNCCNC[C@@H](C)N1C(=O)c2cc([N+](=O)[O-])cc3c2c(cc2cccnc23)C1=O)N1C(=O)c2cc([N+](=O)[O-])cc3c2c(cc2cccnc23)C1=O` [Example 8, (R,R)-1,2-bis-[2-(3-Nitro-5-azaphenanthrene-1,10-dicarboximido)propylamino]ethane Dihydromethanesulfonate], the IC50 in data set [1] (L1210, 72 h) stood at 30 ng/mL; in data set [2] (72 h), 8 ng/mL. Moreover, the “DLD-2 tumor regressions” value in the data set with DLD-2 human colon tumor (10 mg/kg, i.v. once daily for nine days, nude mice) was 2/9. For the same molecule, the inhibition in vivo at 10 mg/kg with DLD-2 human colon tumor (setting [4]) was 95%. The “Tumor Growth Inhibition activity against DLD-2 (in words)” value in the data set with DLD-2 human colon tumor (setting [5]) is reported as “moderate to excellent”. Further, the “MX-1 tumor regressions” value in data set [3] (5 mg/kg, i.v. once daily for nine days, nude mice) is 2/9. For the same molecule, the responders at 5 mg/kg in data set [3] (setting [7]) was 77.8%. In addition, in data set [3] (setting [5]), the “Tumor Growth Inhibition activity against MX-1 (in words)” value was “moderate to excellent”. This molecule also showed a solubility in the data set “Solubility in water” of 4000 µg/mL.
Turning to `CS(=O)(=O)O.CS(=O)(=O)O.C[C@H](CNCCNC[C@@H](C)N1C(=O)c2cccc3c2c(cc2ccncc23)C1=O)N1C(=O)c2cccc3cc([N+](=O)[O-])cc(c23)C1=O` [Example 118, (R,R)-1-[2-(6-Azaphenanthrene-1,10-dicarboximido)propylamino]-2-[2-(3-nitronaphthalene-1,8-dicarboximido)propylamino]ethane Dihydromethanesulfonate], the IC50 in data set [1] (L1210 cells, 72 hr, MTT) stood at 29 ng/mL; in data set [2] (Clone A cells, 72 hr, MTT), 0.8 ng/mL. In the data set on DLD-2 human colon tumor (6 mg/kg, i.v. once daily for nine days, nude mice), the “DLD-2 tumor regressions” value is on record as 7/9. Further, the inhibition in vivo at 6 mg/kg in the data set with DLD-2 human colon tumor (Mus musculus, DLD2, iv, 216 h, 6 mg/kg, i.v. once daily for nine days, nude mice, read-out: DLD-2 percent tumor growth inhibition) came to 99%. Moreover, the “Tumor Growth Inhibition activity against DLD-2 (in words)” value in the data set on DLD-2 human colon tumor (setting [5]) was “moderate to excellent”. The responders at 3 mg/kg in data set [3] (Mus musculus, iv, 216 h, 3 mg/kg, i.v. once daily for nine days, nude mice, read-out: MX-1 tumor regressions, IR=incomplete regression (converted)) is 100%. For the same molecule, the “Tumor Growth Inhibition activity against MX-1 (in words)” value in data set [3] (setting [5]) is reported as “moderate to excellent”. In the data set “physchem”, this molecule displayed a solubility of 65100 µg/mL.
On to `CS(=O)(=O)O.O=C1c2cccc3cc([N+](=O)[O-])cc(c23)C(=O)N1CCCCNCCCN1C(=O)c2cc([N+](=O)[O-])cc3c2c(cc2ncccc23)C1=O` [Example 115, 4-[3-(3-Nitro-8-azaphenanthrene-1,10-dicarboximido)propylamino]-1-(3-nitronaphthalene-1,8dicarboximido)butane Hydromethanesulfonate], for which the IC50 worked out at 3 ng/mL in data set [1] (L1210, 72 h) and 1 ng/mL in data set [2] (72 h). In the data set with DLD-2 human colon tumor (setting [4]), the inhibition in vivo at 10 mg/kg worked out at 90%. The “Tumor Growth Inhibition activity against DLD-2 (in words)” value in the data set with DLD-2 human colon tumor (setting [5]) is “moderate to excellent”. Besides, the inhibition in vivo at 6 mg/kg in data set [3] (setting [6]) is 95%. Besides, in data set [3] (setting [7]), the responders at 6 mg/kg is 12.5%. Also, the “Tumor Growth Inhibition activity against MX-1 (in words)” value in data set [3] (setting [5]) was “moderate to excellent”. The molecule also returned a solubility in “Solubility in water” of 150 µg/mL.
Regarding `CS(=O)(=O)O.CS(=O)(=O)O.Cc1cnc2c(c1)cc1c3c(cc([N+](=O)[O-])cc32)C(=O)N([C@H](C)CNC[C@@H](C)NC[C@@H](C)N2C(=O)c3cc([N+](=O)[O-])cc4c3c(cc3cc(C)cnc34)C2=O)C1=O` [Example 25, (R,R)-1,2-bis-[2-(3-Nitro-7-methyl-5-azaphenanthrene-1, 10dicarboximido)propylamino]-(R)-1-methylethane Dihydromethanesulfonate], the IC50 in data set [1] (L1210, 72 h) is 48 ng/mL; in data set [2] (72 h), 10 ng/mL. Moreover, the inhibition in vivo at 25 mg/kg in the data set on DLD-2 human colon tumor (setting [4]) is 97%; in data set [3] (setting [6]), 99%. In addition, the “MX-1 tumor regressions” value in data set [3] (25 mg/kg, i.v. once daily for nine days, nude mice) was 1/8. Further, in data set [3] (setting [7]), the responders at 25 mg/kg was 75%. Besides, the “Tumor Growth Inhibition activity against MX-1 (in words)” value in data set [3] (setting [5]) is “moderate to excellent”. In addition, the solubility in the data set “Solubility in water” was found to be 4820 µg/mL.
